# System: histamine induced paw oedema
# Assay: Histamine induced paw oedema test (rat)
# Assay type: in vivo, rat (male Sprague-Dawley)
# Details: 1.0 mg/kg, intraperitoneally 15 minutes before the anaesthetics, paw swelling 20 minutes after histamine (50 microliter, 3 mg/ml)
# Protocol: Compounds of formula I may be used to treat all painful, hyperalgesic and/or inflammatory conditions in which C-fibres play a pathophysiological role by eliciting neurogenic pain or inflammation, i.e.:
# I. Histamine induced paw oedema
# The rat histamine paw oedema test was performed essentially as described by Amann et al. (Europ. J. Pharmacol. 279, 227-231, 1995). In brief 250-300 g male Sprague-Dawley rats were anaesthetized with pentobarbital sodium, and placed on a 32 degree (Celsius) heated table. Ten minutes later histamine (50 micoliter, 3 mg/ml) was injected in the right hind paw and 20 minutes hereafter the paw swelling was determined by water plethysmography (Ugo Basile). Test compounds were administered intraperitoneally at 15 minutes before the anaesthetics.
# Values for inhibition of histamine induced oedema response for some representative compounds are recorded in table 1.
row,Structure (SMILES),% Oedema inhibition
1,"Cl.Cl.O=C(O)c1cccnc1N1CCN(CCC=C2c3cc(Cl)ccc3OCOc3ccc(Cl)cc32)CC1 [Example 2, 2-(4-(3-(2,10-Dichloro-12H-dibenzo[d,g][1,3]dioxocin-12-ylidene)-1-propyl)-piperazin-1-yl)-3-pyridinecarboxylic acid dihydrochloride]",24%
2,"Cl.O=C(O)c1cccc(N2CCN(CCCN3c4ccccc4CCc4ccccc43)CC2)n1 [Example 8, 6-(4-(3-(10,11-Dihydro-5H-dibenz[b,f]azepin-5-yl)-1-propyl)-1-piperazinyl)-2-pyridinecarboxylic acid hydrochloride]",61%

# — patent US5916889A, “1,4-disubstituted piperazines” (Novo Nordisk A/S, priority 1996, dated 1999)
